Source: patent publication US8431565B2 (priority 2007, dated 2013)

Target: human CB1 receptor (hCB1) (Homo sapiens, UniProt P21554)
Type: cell-based

human CB1 receptor (hCB1), sequence (P21554 whole entry): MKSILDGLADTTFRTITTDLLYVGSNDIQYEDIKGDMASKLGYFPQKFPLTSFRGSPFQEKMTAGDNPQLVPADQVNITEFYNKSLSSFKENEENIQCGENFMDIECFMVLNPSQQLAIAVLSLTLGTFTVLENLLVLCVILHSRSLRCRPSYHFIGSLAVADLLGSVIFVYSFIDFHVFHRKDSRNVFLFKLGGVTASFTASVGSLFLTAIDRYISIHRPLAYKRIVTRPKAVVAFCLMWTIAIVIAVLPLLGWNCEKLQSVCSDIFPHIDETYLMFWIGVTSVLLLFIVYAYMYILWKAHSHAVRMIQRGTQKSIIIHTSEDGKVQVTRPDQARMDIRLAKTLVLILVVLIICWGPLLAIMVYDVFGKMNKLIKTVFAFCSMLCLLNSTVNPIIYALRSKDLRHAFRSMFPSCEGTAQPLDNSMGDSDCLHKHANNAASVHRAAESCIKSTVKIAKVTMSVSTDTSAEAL

SMILES | EC50
CN1CCCn2c(-c3cc(F)c(F)cc3F)nc(C(=O)NC(C)(C)CO)c2C1 [Compound 765, N-(1-hydroxy-2-methylpropan-2-yl)-8-methyl-3-(2,4,5-trifluorophenyl)-6,7,8,9-tetrahydro-5H-imidazo[1,5-a][1,4]diazepine-1-carboxamide] | > 10 µM
CN1CCCn2c(-c3cc(Cl)ccc3F)nc(C(=O)N[C@H](CN)C(C)(C)C)c2C1 [Compound 768, (S)-N-(1-amino-3,3-dimethylbutan-2-yl)-3-(5-chloro-2-fluorophenyl)-8-methyl-6,7,8,9-tetrahydro-5H-imidazol[1,5-a][1,4]diazepine-1-carboxamide] | > 10 µM
CN1CCCn2c(-c3cc(Cl)ccc3F)nc(C(=O)N[C@H](CN3CCCC3=O)C(C)(C)C)c2C1 [Compound 769, (S)-3-(5-chloro-2-fluorophenyl)-N-(3,3-dimethyl-1-(2-oxopyrrolidin-1-yl)butan-2-yl)-8-methyl-6,7,8,9-tetrahydro-5H-imidazo[1,5-a][1,4]diazepine-1-carboxamide] | > 10 µM
CC(=O)NC[C@@H](NC(=O)c1nc(-c2cc(Cl)ccc2F)n2c1CN(C)CCC2)C(C)(C)C [Compound 770, (S)-N-(1-acetamido-3,3-dimethylbutan-2-yl)-3-(5-chloro-2-fluorophenyl)-8-methyl-6,7,8,9-tetrahydro-5H-imidazo[1,5-a][1,4]diazepine-1-carboxamide] | > 10 µM
CN1CCCn2c(-c3cc(Cl)ccc3F)nc(C(=O)N[C@H](CNS(C)(=O)=O)C(C)(C)C)c2C1 [Compound 771, (S)-3-(5-chloro-2-fluorophenyl)-N-(3,3-dimethyl-1-(methylsulfonamido)butan-2-yl)-8-methyl-6,7,8,9-tetrahydro-5H-imidazo[1,5-a][1,4]diazepine-1-carboxamide] | > 10 µM
CNC(=O)[C@@H](NC(=O)c1nc(C2CCN(S(=O)(=O)C(C)C)CC2)n2c1CN(C)CCC2)C(C)(C)C [Compound 775, (S)-N-(3,3-dimethyl-1-(methylamino)-1-oxobutan-2-yl)-3-(1-(isopropylsulfonyl)piperidin-4-yl)-8-methyl-6,7,8,9-tetrahydro-5H-imidazo[1,5-a][1,4]diazepine-1-carboxamide] | > 10 µM
CNC(=O)[C@@H](NC(=O)c1nc(-c2cnn(S(=O)(=O)c3ccccc3)c2)n2c1CN(C)CCC2)C(C)(C)C [Compound 776, (S)-N-(3,3-dimethyl-1-(methylamino)-1-oxobutan-2-yl)-8-methyl-3-(1-(phenylsulfonyl)-1H-pyrazol-4-yl)-6,7,8,9-tetrahydro-5H-imidazo[1,5-a][1,4]diazepine-1-carboxamide] | > 10 µM
CN1CCCn2c(-c3cc(F)c(F)cc3F)nc(C(=O)N3CCC4(CCNC4=O)CC3)c2C1 [Compound 787, 8-(8-methyl-3-(2,4,5-trifluorophenyl)-6,7,8,9-tetrahydro-5H-imidazo[1,5-a][1,4]diazepine-1-carbonyl)-2,8-diazaspiro[4.5]decan-1-one] | > 10 µM
CN1CCCn2c(-c3cc(F)c(F)cc3F)nc(C(=O)N3CCC4(CCN(C)C4=O)CC3)c2C1 [Compound 788, 2-methyl-8-(8-methyl-3-(2,4,5-trifluorophenyl)-6,7,8,9-tetrahydro-5H-imidazo[1,5-a][1,4]diazepine-1-carbonyl)-2,8-diazaspiro[4.5]decan-1-one] | > 10 µM
CN1CCCn2c(-c3cc(F)c(F)cc3F)nc(C(=O)N3CCCCC3CN3CCOCC3)c2C1 (centres unmarked) [Compound 789, (8-methyl-3-(2,4,5-trifluorophenyl)-6,7,8,9-tetrahydro-5H-imidazo[1,5-a][1,4]diazepin-1-yl)(2-(morpholinomethyl)piperidin-1-yl)methanone] | > 10 µM
CNC(=O)[C@@H]1CCN(C(=O)c2nc(-c3cc(Cl)c(F)cc3F)n3c2CN(C)CCC3)C1 [Compound 808, (R)-1-(3-(5-chloro-2,4-difluorophenyl)-8-methyl-6,7,8,9-tetrahydro-5H-imidazo[1,5-a][1,4]diazepine-1-carbonyl)-N-methylpyrrolidine-3-carboxamide] | > 10 µM
CNC(=O)[C@H]1CCN(C(=O)c2nc(-c3cc(Cl)c(F)cc3F)n3c2CN(C)CCC3)C1 [Compound 809, (S)-1-(3-(5-chloro-2,4-difluorophenyl)-8-methyl-6,7,8,9-tetrahydro-5H-imidazo[1,5-a][1,4]diazepine-1-carbonyl)-N-methylpyrrolidine-3-carboxamide] | > 10 µM
CN1CCCn2c(-c3cc(C(F)(F)F)ccc3F)nc(C(=O)N[C@H](C(=O)NCCF)C(C)(C)C)c2C1 [Compound 810, (S)-3-(2-fluoro-5-(trifluoromethyl)phenyl)-N-(1-(2-fluoroethylamino)-3,3-dimethyl-1-oxobutan-2-yl)-8-methyl-6,7,8,9-tetrahydro-5H-imidazo[1,5-a][1,4]diazepine-1-carboxamide] | > 10 µM
CNC(=O)[C@@H](NC(=O)c1nc(-c2cc(F)c(F)cc2F)n2c1CN(C(C)=O)CCC2)C(C)(C)C [Compound 818, (S)-8-acetyl-N-(3,3-dimethyl-1-(methylamino)-1-oxobutan-2-yl)-3-(2,4,5-trifluorophenyl)-6,7,8,9-tetrahydro-5H-imidazo[1,4]diazepine-1-carboxamide] | > 10 µM
CN1CCCn2c(-c3cc(Cl)c(F)cc3F)nc(C(=O)N3CC(F)(F)C3)c2C1 [Compound 823, (3-(5-chloro-2,4-difluorophenyl)-8-methyl-6,7,8,9-tetrahydro-5H-imidazo[1,5-a][1,4]diazepin-1-yl)(3,3-difluoroazetidin-1-yl)methanone] | > 10 µM
CN1CCCn2c(-c3cc(Cl)c(F)cc3F)nc(C(=O)N3CCC(F)(F)C3)c2C1 [Compound 824, (3-(5-chloro-2,4-difluorophenyl)-8-methyl-6,7,8,9-tetrahydro-5H-imidazo[1,5-a][1,4]diazepin-1-yl)(3,3-difluoropyrrolidin-1-yl)methanone] | > 10 µM
COC(=O)C1CN(C(=O)c2nc(-c3cc(Cl)c(F)cc3F)n3c2CN(C)CCC3)CCC1=O (centres unmarked) [Compound 826, methyl 1-(3-(5-chloro-2,4-difluorophenyl)-8-methyl-6,7,8,9-tetrabydro-5H-imidazo[1,5-a][1,4]diazepine-1-carbonyl)-4-oxopiperidine-3-carboxylate] | > 10 µM
CN1CCCn2c(-c3cc(Cl)ccc3F)nc(C(=O)N[C@H](C(=O)N[C@H]3CCC[C@H]3O)C(C)(C)C)c2C1 [Compound 840, 3-(5-chloro-2-fluorophenyl)-N-((S)-1-((1S,2R)-2-hydroxycyclopentylamino)-3,3-dimethyl-1-oxobutan-2-yl)-8-methyl-6,7,8,9-tetrahydro-5H-imidazo[1,5-a][1,4]diazepine-1-carboxamide] | > 10 µM
CC1CN(C(=O)c2nc(-c3cc(F)c(F)cc3F)n3c2CN(C)CCC3)CC(C)O1 (centres unmarked) [Compound 854, (2,6-dimethylmorpholino)(8-methyl-3-(2,4,5-trifluorophenyl)-6,7,8,9-tetrahydro-5H-imidazo[1,5-a][1,4]diazepin-1-yl)methanone] | > 10 µM
CN1CCCn2c(-c3cc(F)c(F)cc3F)nc(C(=O)N3CC(O)C3)c2C1 [Compound 856, (3-hydroxyazetidin-1-yl)(8-methyl-3-(2,4,5-trifluorophenyl)-6,7,8,9-tetrahydro-5H-imidazo[1,5-a][1,4]diazepin-1-yl)methanone] | > 10 µM
CN1CCCn2c(-c3cc(F)c(F)cc3F)nc(C(=O)N3CCOCC3)c2C1 [Compound 859, (8-methyl-3-(2,4,5-trifluorophenyl)-6,7,8,9-tetrahydro-5H-imidazo[1,5-a][1,4]diazepin-1-yl)(morpholino)methanone] | > 10 µM
CN1CCCn2c(-c3cc(Cl)c(F)cc3F)nc(C(=O)NC3(C(=O)N4CC(F)(F)C4)CC3)c2C1 [Compound 873, 3-(5-chloro-2,4-difluorophenyl)-N-(1-(3,3-difluoroazetidine-1-carbonyl)cyclopropyl)-8-methyl-6,7,8,9-tetrahydro-5H-imidazo[1,5-a][1,4]diazepine-1-carboxamide] | > 10 µM
CN1CCN(CC(C)(C)NC(=O)c2nc(-c3cc(Cl)c(F)cc3F)n3c2CN(C)CCC3)CC1 [Compound 879, 3-(5-chloro-2,4-difluorophenyl)-8-methyl-N-(2-methyl-1-(4-methylpiperazin-1-yl)propan-2-yl)-6,7,8,9-tetrahydro-5H-imidazo[1,5-a][1,4]diazepine-1-carboxamide] | > 10 µM
CC1CCN(CC(C)(C)NC(=O)c2nc(-c3cc(Cl)c(F)cc3F)n3c2CN(C)CCC3)CC1 [Compound 880, 3-(5-chloro-2,4-difluorophenyl)-8-methyl-N-(2-methyl-1-(4-methylpiperidin-1-yl)propan-2-yl)-6,7,8,9-tetrahydro-5H-imidazo[1,5-a][1,4]diazepine-1-carboxamide] | > 10 µM
CNC(=O)C1(NC(=O)c2nc(-c3cc(Cl)c(F)cc3F)n3c2CN(C)CCC3)CC1 [Compound 905, 3-(5-chloro-2,4-difluorophenyl)-8-methyl-N-(1-(methylcarbamoyl)cyclopropyl)-6,7,8,9-tetrahydro-5H-imidazo[1,5-a][1,4]diazepine-1-carboxamide] | > 10 µM
CN1CCCn2c(-c3cc(Cl)c(F)cc3F)nc(C(=O)N3CC[C@H](O)C3)c2C1 [Compound 910, (S)-(3-(5-chloro-2,4-difluorophenyl)-8-methyl-6,7,8,9-tetrahydro-5H-imidazo[1,5-a][1,4]diazepin-1-yl)(3-hydroxypyrrolidin-1-yl)methanone] | > 10 µM
